Here are results for 24 compounds from patent US10287301B2 (Achillion Pharmaceuticals, Inc., priority 2015, dated 2019).

The target of the experiment is Human Factor D (Homo sapiens (Human), UniProt P00746). In words: Human Factor D Assay. The format is biochemical. The gist of the method:
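Serum-purified human Factor D (80 nM final) was preincubated with test compound at various concentrations for 5 min at room temperature in 50 mM Tris, 1M NaCl, pH 7.5. Z-L-Lys-SBzl and DTNB were then added at 100 μM each. IC50 came from nonlinear regression of reaction rates versus compound concentration.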

[1] abbreviates: Table 3, Human Factor D 80 nM, substrate Z-L-Lys-SBzl, read-out: IC50 (Stars).
Setting [2] is: Human Factor D, Table 3, read-out: IC50.
Setting [3] is: Human Factor D 80 nM, substrate Z-L-Lys-SBzl, read-out: IC50.
Where [4] appears, read: Human Factor D assay of Example 8, Table 2, read-out: IC50.

Read-outs that look alike come from different tables or passages of the source. Where only a bound is given, the exact number is not on record here.

For orientation: IC50 means the concentration needed to halve the response being measured.

Human Factor D, sequence (P00746 26-253): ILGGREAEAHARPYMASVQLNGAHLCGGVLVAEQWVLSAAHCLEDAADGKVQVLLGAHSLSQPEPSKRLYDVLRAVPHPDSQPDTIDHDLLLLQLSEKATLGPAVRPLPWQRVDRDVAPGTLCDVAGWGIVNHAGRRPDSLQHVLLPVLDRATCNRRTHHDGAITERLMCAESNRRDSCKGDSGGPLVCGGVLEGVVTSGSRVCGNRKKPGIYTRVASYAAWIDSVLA

As to `CC(=O)c1nn(CC(=O)N2CC3CC2(C(=O)Nc2cccc(Br)n2)C3)c2ccc(-c3cnc(C)nc3)cc12` [Compound 462, 2-(2-(3-acetyl-5-(2-Methylpyrimidin-5-yl)-1H-indazol-1-yl)acetyl)-N-(6-bromopyridin-2-yl)-2-azabicyclo[2.1.1]hexane-1-carboxamide], the IC50 under setting [1] was under 1000 nM.

As to `CC(=O)c1nn(CC(=O)N2[C@@H]3C[C@@H]3C[C@H]2C(=O)NC2CCN(CC(F)(F)F)C2)c2ccc(-c3cnc(C)nc3)cc12` (stereo partly drawn) [Compound 611, (1R, 3S, 5R)-2-(2-(3-acetyl-5-(2-methylpyrimidin-5-yl)-1H-indazol-1-yl)acetyl)-N-(1-(2,2,2-trifluoroethyl)pyrrolidin-3-yl)-2-azabicyclo [3.1.0] hexane-3-carboxamide], the IC50 under setting [2] was under 1000 nM.

Consider `CC(=O)c1nn(CC(=O)N2C[C@H](F)C[C@H]2C(=O)Nc2cccc(Br)n2)c2ccc(-c3cnc4cc(C(C)(C)C)nn4c3)cc12` [Compound 682, (2S,4R)-1-(2-(3-Acetyl-5-(2-(tert-butyl)pyrazolo[1,5-a]pyrimidin-6-yl)-1H-indazol-1-yl)acetyl)-N-(6-bromopyridin-2-yl)-4-fluoropyrrolidine-2-carboxamide], for which, under setting [2], the IC50 was under 1000 nM.

As for `COc1ncc(-c2ccc3c(c2)c(C(C)=O)nn3CC(=O)N2[C@@H]3C[C@@H]3C[C@H]2C(=O)Nc2ccc(F)c(Br)n2)cn1` [Compound 457, (1R,3S,5R)-2-(2-(3-Acetyl-5-(2-methoxypyrimidin-5-yl)-1H-indazol-1-yl)acetyl)-N-(6-bromo-5-fluoropyridin-2-yl)-2-azabicyclo[3.1.0]hexane-3-carboxamide], under setting [1], the IC50 is under 1000 nM.

On to `CC(=O)c1cn(CC(=O)N2C[C@H](F)C[C@H]2C(=O)Nc2noc3cc(C(F)(F)F)ccc23)c2ccc(-c3ccnnc3)cc12` [Compound 42, (2S,4R)-1-(2-(3-acetyl-5-(pyridazin-4-yl)-1H-indol-1-yl)acetyl)-4-fluoro-N-(6-(trifluoromethyl)benzo[d]isoxazol-3-yl)pyrrolidine-2-carboxamide], for which the half-inhibitory concentration (IC50) under setting [3] was over 10000 nM.

Turning to `COC(=O)c1cc(Cl)nc(NC(=O)[C@@H]2C[C@@H](F)CN2C(=O)Cn2nc(C(C)=O)c3cc(-c4cnc(C)nc4)ccc32)c1` [Compound 396, Methyl 2-((2S,4R)-1-(2-(3-Acetyl-5-(2-methylpyrimidin-5-yl)-1H-indazol-1-yl)acetyl)-4-fluoropyrrolidine-2-carboxamido)-6-chloroisonicotinate], under setting [1], the IC50 was under 1000 nM.

In the case of `CC(=O)c1nn(CC(=O)N2C3CC[C@@H](C3)[C@H]2C(=O)Nc2cccc(Br)n2)c2ccc(-c3cnc(C)nc3)cc12` [Compound 475, (3S,4S)-2-(2-(3-Acetyl-5-(2-methylpyrimidin-5-yl)-1H-indazol-1-yl)acetyl)-N-(6-bromopyridin-2-yl)-2-azabicyclo[2.2.1]heptane-3-carboxamide], under setting [1], the IC50 was under 1000 nM.

Turning to `CC(=O)c1nn(CC(=O)N2C[C@H](F)C[C@H]2C(=O)Nc2nc(OCC(F)(F)F)ccc2C)c2ccc(-c3cnc(C)nc3)cc12` [Compound 601, (2S,4R)-1-(2-(3-Acetyl-5-(2-methylpyrimidin-5-yl)-1H-indazol-1-yl)acetyl)-4-fluoro-N-(3-methyl-6-(2,2,2-trifluoroethoxy)pyridin-2-yl)pyrrolidine-2-carboxamide], under setting [2], the IC50 was under 1000 nM.

`CC(=O)c1cn(CC(=O)N2C[C@H](F)C[C@H]2C(=O)Nc2cccc(-c3ccccc3Cl)c2F)c2ccc(-c3cnc4cc(C)nn4c3)cc12` [Compound 300, (2S,4R)-1-(2-(3-acetyl-5-(2-methylpyrazolo[1,5-a]pyrimidin-6-yl)-1H-indol-1-yl)acetyl)-N-(2′-chloro-2-fluorobiphenyl-3-yl)-4-fluoropyrrolidine-2-carboxamide]: under setting [4], the IC50 was under 1000 nM.

Regarding `CC(=O)c1nn(CC(=O)N2[C@@H]3C[C@@H]3C[C@H]2C(=O)NCC(F)=C(C)C)c2ccc(-c3cnc(C)nc3)cc12` [Compound 482, (1R,3S,5R)-2-(2-(3-acetyl-5-(2-methylpyrimidin-5-yl)-1H-indazol-1-yl)acetyl)-N-(2-fluoro-3-methylbut-2-en-1-yl)-2-azabicyclo[3.1.0] hexane-3-carboxamide], the IC50 under setting [1] was under 1000 nM.

Turning to `CC(=O)c1nn(CC(=O)N2C[C@H](F)C[C@H]2C(=O)Nc2cccc(OC(F)(F)F)n2)c2ccc(-c3cnc(C)nc3)cc12` [Compound 344, (2S,4R)-1-(2-(3-Acetyl-5-(2-methylpyrimidin-5-yl)-1H-indazol-1-yl)acetyl)-4-fluoro-N-(6-(trifluoromethoxy)pyridin-2-yl)pyrrolidine-2-carboxamide], under setting [1], the IC50 is under 1000 nM.

On to `NC(=O)c1nn(CC(=O)N2C[C@H](F)C[C@H]2C(=O)Nc2ccc(F)c(-c3nnc4n3CCCCC4)c2)c2ccc(-c3ccnnc3)cc12` [Compound 91, 1-(2-((2S,4R)-4-fluoro-2-(4-fluoro-3-(6,7,8,9-tetrahydro-5H-[1,2,4]triazolo[4,3-a]azepin-3-yl)phenylcarbamoyl)pyrrolidin-1-yl)-2-oxoethyl)-5-(pyridazin-4-yl)-1H-indazole-3-carboxamide], for which the IC50 under setting [3] was over 10000 nM.

For the compound `NC(=O)c1nn(CC(=O)N2C[C@H](F)C[C@H]2C(=O)Nc2nc(-c3ccc4c(c3)CCCC4)cs2)c2ccc(-c3ccnnc3)cc12` [Compound 55, 1-(2-((2S,4R)-4-fluoro-2-(4-(5,6,7,8-tetrahydro-naphthalen-2-yl)thiazol-2-ylcarbamoyl)pyrrolidin-1-yl)-2-oxoethyl)-5-(pyridazin-4-yl)-1H-indazole-3-carboxamide], under setting [3], the IC50 was over 10000 nM.

Take `COc1cc(C)cc2c1OCCC2NC(=O)[C@@H]1C[C@@H](F)CN1C(=O)Cn1nc(C(N)=O)c2cc(-c3ccnnc3)ccc21` (stereo partly drawn) [Compound 122, 1-(2-((2S,4R)-4-fluoro-2-(8-methoxy-6-methylchroman-4-ylcarbamoyl)pyrrolidin-1-yl)-2-oxoethyl)-5-(pyridazin-4-yl)-1H-indazole-3-carboxamide]: the IC50 under setting [3] was over 10000 nM.

As to `NC(=O)c1nn(CC(=O)N2C[C@H](F)C[C@H]2C(=O)Nc2cccc3c2CN(c2ccccn2)C3)c2ccc(-c3ccnnc3)cc12` [Compound 104, 1-(2-((2S,4R)-4-fluoro-2-(2-(pyridin-2-yl)isoindolin-4-ylcarbamoyl)pyrrolidin-1-yl)-2-oxoethyl)-5-(pyridazin-4-yl)-1H-indazole-3-carboxamide], the IC50 under setting [3] was over 10000 nM.

With `CC(=O)c1nn(CC(=O)N2[C@@H]3C[C@@H]3C[C@H]2C(=O)Nc2cccc(Br)n2)c2ccc(-c3cnc4cc(C5CC5)nn4c3)cc12` [Compound 673, (1R,3S,5R)-2-(2-(3-Acetyl-5-(2-cyclopropylpyrazolo[1,5-a]pyrimidin-6-yl)-1H-indazol-1-yl)acetyl)-N-(6-bromopyridin-2-yl)-2-azabicyclo[3.1.0]hexane-3-carboxamide], under setting [2], the IC50 is under 1000 nM.

With `CC(=O)c1nn(CC(=O)N2CC(F)(CN)C[C@H]2C(=O)Nc2cccc(Br)n2)c2ccc(-c3cnc(C)nc3)cc12` (stereo partly drawn) [Compound 399, (2S)-1-(2-(3-acetyl-5-(2-methylpyrimidin-5-yl)-1H-indazol-1-yl)acetyl)-4-(aminomethyl)-N-(6-bromopyridin-2-yl)-4-fluoropyrrolidine-2-carboxamide], the IC50 under setting [1] was under 1000 nM.

For the compound `CC(=O)c1nn(CC(=O)N2CC(F)(F)C[C@H]2C(=O)Nc2cccc(Br)n2)c2ccc(-c3cnc(C)nc3)cc12` [Compound 255, (S)-1-(2-(3-acetyl-5-(2-methylpyrimidin-5-yl)-1H-indazol-1-yl)acetyl)-N-(6-bromopyridin-2-yl)-4,4-difluoropyrrolidine-2-carboxamide], the IC50 under setting [4] was under 1000 nM.

Take `CC(=O)c1cn(CC(=O)N2CC[C@H]2C(=O)Nc2cccc(C)n2)c2ccc(-c3cnc(C)nc3)cc12` [Compound 481, (S)-1-(2-(3-a=Acetyl-5-(2-methylpyrimidin-5-yl)-1H-indol-1-yl)acetyl)-N-(6-methylpyridin-2-yl)azetidine-2-carboxamide]: the IC50 under setting [1] was over 10000 nM.

In the case of `CO[C@@H]1CO[C@H]2[C@@H]1OC[C@H]2Oc1ncc(-c2ccc3c(c2)c(C(C)=O)cn3CC(=O)N2C[C@H](F)C[C@H]2C(=O)Nc2cccc(Br)n2)cn1` [Compound 337, (2S,4R)-1-(2-(3-acetyl-5-(2-(((3R,3aR,6R,6aR)-6-methoxyhexahydrofuro [3,2-b]furan-3-yl)oxy)pyrimidin-5-yl)-1H-indol-1-yl)acetyl)-N-(6-bromopyridin-2-yl)-4-fluoropyrrolidine-2-carboxamide], under setting [1], the IC50 was under 1000 nM.

For `CC(=O)c1cn(CC(=O)N2C[C@@H](F)C[C@@H]2C(=O)NC2CCCN(c3ccccc3Cl)C2=O)c2ccc(-c3ccnnc3)cc12` (stereo partly drawn) [Compound 161, (2R,4S)-1-(2-(3-acetyl-5-(pyridazin-4-yl)-1H-indol-1-yl)acetyl)-N-(1-(2-chlorophenyl)-2-oxopiperidin-3-yl)-4-fluoropyrrolidine-2-carboxamide], the IC50 under setting [3] is under 1000 nM.

In the case of `CCOC(=O)Cc1ncc(-c2ccc3c(c2)c(C(C)=O)nn3CC(=O)N2C[C@H](F)C[C@H]2C(=O)Nc2ccc(F)c(Br)n2)cn1` [Compound 539, ethyl 2-(5-(3-Acetyl-1-(2-((2S,4R)-2-((6-bromo-5-fluoropyridin-2-yl)carbamoyl)-4-fluoropyrrolidin-1-yl)-2-oxoethyl)-1H-indazol-5-yl)pyrimidin-2-yl)acetate], the IC50 under setting [1] is under 1000 nM.

With `CC(=O)c1nn(CC(=O)N2C[C@H](F)C[C@H]2C(=O)NC2C[C@H]2c2ccccc2Cl)c2ccc(-c3cnc(C)nc3)cc12` (stereo partly drawn) [Compound 460, (2S,4R)-1-(2-(3-acetyl-5-(2-methylpyrimidin-5-yl)-1H-indazol-1-yl)acetyl)-N-((2S)-2-(2-chlorophenyl)cyclopropyl)-4-fluoropyrrolidine-2-carboxamide], under setting [1], the IC50 is under 1000 nM.

Turning to `Cc1ncc(-c2ccc3c(c2)c(C(N)=O)nn3CC(=O)N2C[C@H](F)C[C@H]2C(=O)Nc2cccc(-c3ccccc3Cl)c2F)cn1` [Compound 103], under setting [3], the IC50 is under 1000 nM.
